Measured values taken from patent US20190350964A1, “ANTI-CANCER COMPOUNDS AND USES THEREOF” (NATIONAL UNIVERSITY OF SINGAPORE, priority 2016, published 2019).

What was measured:
MDA-MB-231 = test: MTT cytotoxicity test (GI50); format: cell-based; conditions: Homo sapiens; MDA-MB-231, cancer, breast; MTT 72 h
AZ521 = test: MTT cytotoxicity test (GI50); format: cell-based; conditions: Homo sapiens, AZ-521; AZ521, cancer, gastric; MTT 72 h
PI3K/Akt/mTOR pathway = test: Immunoblot of phosphorylated Akt and p70S6K; format: cell-based, human; conditions: normal versus transformed BJ cells, 24 h
Procedure: (§1) Total cell lysates were prepared with 1% triton lysis buffer [25 mM Tris HCl (pH 8.0), 150 mM NaCl, 1% triton-X100, 1 mM dithiothreitol (DTT), protease inhibitor mix (Complete Mini, Roche) and phosphatase inhibitor (PhosphoStop, Roche)] and subjected to SDS-PAGE. The following antibodies were used for immunoblotting: anti-β-actin (Sigma-Aldrich), anti-cleaved PARP (Abcam, #ab32064), anti-PI5P4Kα (#5527), anti-PI5P4Kβ (#9694), anti-cleaved caspase-3 (#9664), anti-pHistone H3(Ser10) (#3377), anti-pAkt(S473) (#9271), anti-pAkt(T308) (#13038), anti-total Akt (#9272), anti-p70S6K(T389) (#9234), anti-total p70S6K (#9202), anti-pErk (#4370), anti-γ-Histone H2AX (#9718) (Cell signaling) and anti-PIK3IP1 (Proteintech, #16826-1-AP). The secondary antibodies used were sheep anti-mouse IgG HRP and donkey anti-rabbit IgG HRP (Amersham; 1:2000 dilution). Immunoreactive proteins were visualized using ECL reagent (Amersham). Where indicated, intensities of protein bands were quantified by densitometry (Odyssey V3.0), normalized to their loading controls and then calculated as fold expression change relative to DMSO control.

[1] = system: normal and transformed BJ cells; test: a131 SAR analysis: pH3(Ser10) immunoblot, BrdU incorporation, subG1 FACS; format: cell-based, human; set-up: key: Group 1: possess the dual-inhibitory properties of both causing the arrest of normal BJ cells at the G1/S phase and also causing mitotic arrest/catastrophe in transformed BJ cells; Group 2: only cause the arrest of normal BJ cells at the G1/S phase; Group 3: cause mitotic arrest/catastrophe in transformed BJ cells, but do not arrest normal BJ cells at the G1/S phase; Group 4: are inactive or weakly active; conditions: 5 μM, 48 h
Procedure: (§2) Cell death was assessed via Annexin V and/or PI (propidium iodide) staining according to the manufacturer's instructions (eBioscience). Cell growth arrest was assessed by direct measurement of DNA synthesis through incorporation of the nucleoside analog bromodeoxyuridine (BrdU). Briefly, BrdU (30 μM, Sigma-Aldrich) was added for 2 h before harvesting cells. Cells were subsequently stained with Pacific Blue-conjugated BrdU antibody (Invitrogen) for 1 h followed by PI staining. Stained cells were analyzed by MACSQuant (MACS). Three independent experiments were performed in triplicate. The percentage of Annexin V/PI- or BrdU-positive cells was quantified using Flow Jo software (Becton Dickinson). Where indicated, the combined activity of caspase-3/7 was determined using the caspase-Glo 3/7 Assay Kit (Promega) and normalized to the number of viable cells as determined by MTT assay.
as §1

[2] = system: normal BJ cells with activated H-RasV12-ER; test: FACS subG1 in engineered BJ-derived fibroblasts; format: cell-based, human; conditions: 5 μM, 48 h
Procedure: Isogenic BJ human foreskin fibroblast cell lines, including non-transformed (normal) and transformed BJ cells and all gastric cancer cell lines, were kind gifts from Dr. Mathijs Voorhoeve and Dr. Patrick Tan (Duke-NUS), respectively and tested for mycoplasma infection. All other human cancer cell lines used in this study were purchased from ATCC and cultured in accordance with ATCC's instructions. H-RasV12-ER was activated by exposing the BJ-derived fibroblasts to 4-OHT (100 nM, Sigma-Aldrich). Three different sets of siRNAs were used in this study to target PI5P4K isoform DNA sequences as follows:
as §2, with “Cells were subsequently stained with Pacific Blue-conjugated BrdU antibody (Invitrogen) for 1 h followed by PI staining.” left out, “Three independent experiments were performed in triplicate.” left out

[3] = system: HCT-15 human colon adenocarcinoma cells; test: HCT-15 tumor xenograft in nude mice; format: in vivo, mouse
Source text: BALB/c athymic female nude mice (nu/nu, 5-7 weeks) (InVivos) were kept under specific pathogen-free (SPF) conditions. The care and use of mice was approved by the Duke-NUS IACUC in accordance with protocol 2015/SHS/1030. HCT15 human colon cancer cells (5×10^6) or MDA-MB-231 human breast cancer cells (4×10^6 with Matrigel) were subcutaneously injected into the flanks of mice. When the mean tumor volume reached 100-300 mm^3 (Day 1), the mice were randomly divided into experimental groups of 6 mice by an algorithm that moves animals around to achieve the best case distribution to assure that each treatment group has similar mean tumor burden and standard deviation. No statistical method was used to predetermine sample size. […] Paclitaxel (Cayman Chemical) was dissolved in ethanol:Tween 80=1:3 (v/v) solution followed by the addition of a 5% glucose solution (final ratio, ethanol:Tween 80:5% glucose=5:15:80) and injected via the tail vain (IV). Tumor dimensions were measured using calipers, and tumor volume (mm^3) was calculated using the formula width^2×length/2 in a blinded fashion. On Day 12 (HCT15) or Day 16 (MDA-MB-231), mice were sacrificed. Tumors were collected, fixed overnight in 4% paraformaldehyde (PFA) and stored in 70% ethanol. For immunostaining, antigens were retrieved from formaldehyde-fixed, paraffin-embedded tumor tissue sections for 30 min by boiling in sodium citrate buffer (pH 6.0) using a microwave histoprocessor (Milestone). Endogenous peroxidase activity in tissue sections was depleted by treatment with 3% hydrogen peroxide (H2O2 in 1×TBS) for 20 min at room temperature. Tumor tissue sections were incubated overnight with anti-β-tubulin (Abcam; 1:100 in 3% BSA/TBS-Tween 20) at 4° C. followed by incubation with goat anti-rabbit FITC-conjugated secondary antibody (Invitrogen; 1:200 in 3% BSA/TBS) for 1 h at 25° C. After dehydration treatment, coverslips were mounted using DAPI mounting medium (Vector). Images were acquired in 3D-SIM mode using a super resolution microscope (Nikon), and the number of cells with either 2 or mitotic-spindles was quantified (n>50 cells per section, 6-7 sections per treatment). For detection of apoptosis using the TUNEL method, the ApopTag Plus Peroxidase In Situ Apoptosis Detection Kit (Millipore) was used for formaldehyde-fixed, paraffin-embedded tumor tissue sections treated with b5 (80 mg/kg, IP) or control vehicle for 12 days. Slide scans were acquired using a MetaSystems Metafer built on a Zeiss Axiolmager Z.2 upright microscope. The system is equipped with a CoolCubel camera and a Zeiss Plan-Neofluar 20×/0.5 Ph2 objective lens. Image acquisition was controlled with Metafer4 software, and stitching was performed with the VSlide software and further processed using the open source software FIJI. A custom macro was used to batch process the images in the following sequence: Gaussian filter, color deconvolution of hematoxylin and DAB, thresholding the hematoxylin image, watershed to separate touching nuclei, and then count the number of hematoxylin-stained nuclei. For the DAB image, a fixed threshold was used, watershed applied and the number of DAB stained nuclei counted. In all cases, no data or animals were excluded and results are expressed as mean and standard deviation of the mean.

N#C/C(=C\c1cccc2cnccc12)c1c[nH]c2ccccc12 [a131, (Z)-2-(1H-indol-3-yl)-3-(5-isoquinolyl)prop-2-enenitrile]
GI50 (MDA-MB-231): 1100 nM | GI50 (AZ521): 2400 nM | inhibition of the PI3K/Akt/mTOR pathway (PI3K/Akt/mTOR pathway): consistently caused inhibition of the PI3K/Akt/mTOR pathway only in normal BJ cells, but not in transformed counterparts | Group (a131 SAR analysis) [1]: Group 1 | a131-induced cell death after 4-OHT-induced activation of H-RasV12-ER [2]: sufficient to sensitize normal BJ cells to a131-induced cell death | misaligned chromosomes / multipolar spindles in tumor sections ([3]; HCT-15 tumor sections, Day 12): caused massively misaligned chromosomes with multipolar spindles in tumor sections | antitumor activity (tumor volume) ([3]; a131 20 mg/kg, b5 40-80 mg/kg, PO or IP twice daily, 12 days, paclitaxel IV): marked antitumor efficacies | body weight loss ([3]; xenograft-bearing mice, PO or IP twice daily): without any body weight loss
